Data from patent US10632181B2, “Composition, containing RGD motif-containing peptide or fragment thereof, for treating burns and glaucoma, alleviating skin wrinkles, and promoting hair growth” (HUONS CO., LTD., priority 2014, dated 2020).
Positions of bridges follow the written chain, without caps; N, C: chain ends. No end group written: not given here.

Key:
Type in all cases: in vivo, Women aged 30-65
wrinkles around eyes [1] = assay: Expert visual assessment of wrinkles (global photodamage score); details: for expert visual assessment score: severity 0-7
Procedure: Furthermore, visual assessment was performed. At each visit before and after use, experts assessed the wrinkle extent by scoring using global photodamage score (Br J Dermatol. 2010; 162(3):497-502). To verify if there is any difference in each of control group and experimental group in 4 weeks after use, a change (%) in visual assessment scores of 2 weeks and 4 weeks after use relative to before use was analyzed. The visual assessment scores are as follows (Table 18): […]

wrinkles around eyes [2] = assay: Survey of subjects about wrinkle reduction effectiveness
Procedure: Furthermore, surveying the subjects about effectiveness was conducted. The subjects were asked to personally make responses about the extent to which the subjects felt that wrinkles reduced after use of test product using 5 levels: better (4), a little bit better (3), no change (2), a little bit worse (1), worse (0). The researcher determined if test product has efficacy by calculating the percentage of the number of subjects for each response.

wrinkles around eyes [3] = assay: Wrinkle extent around eyes, skin replica, Visiometer SV600; parameters: R3 numerical value (average roughness) / R1 numerical value (skin roughness) / R4 numerical value (smoothness depth) / R5 numerical value (arithmetic average roughness): unit not given here
Procedure: The extent of wrinkles around eyes was measured using equipment. A target site to measure the wrinkle extent was regions around the eyes of the subjects, and the left side and the right side of the face were set as a measurement site. To measure the wrinkle extent, the subjects were allowed to wash the measurement site with water, and take a rest for 30 minutes in the waiting room under constant temperature and constant humidity conditions of indoor temperature 20-25° C. and humidity 40-60% to acclimate the skin surface temperature and humidity to the environment of the measurement space, and were not permitted to drink water during the rest. For objective measurement, measurements were performed by one researcher, and the same site was measured at each time of the first visit before use and the second and third visits in 2 and 4 weeks after use. Transparency profilometry analysis was performed using Visiometer SV600 (Courage-Khazaka electronic GmbH, Germany) on skin replica of the site to which test product and control product were applied before use and 2 and 4 weeks after use, and to identify if there is any difference in each of control group and experimental group after use, a change (%) in R1, R2, R4, R5 measurement values in 2 and 4 weeks after use relative to before use was analyzed.

wrinkles around eyes [4] = assay: Wrinkle extent around eyes by 3D imaging (PRIMOS Premium); details: for Rmax numerical value (maximum height of wrinkle profile) / Rp numerical value (maximum profile peak height) / Rv numerical value (maximum profile valley depth): in µm (unit assumed)
Procedure: Furthermore, the wrinkle extent was measured by 3D imaging. A target site to measure the wrinkle extent was regions around the eyes of the subjects, and the right side of the face was set as a measurement site. To measure the wrinkle extent, the subjects were allowed to wash the measurement site with water, and take a rest for 30 minutes in the waiting room under constant temperature constant humidity conditions of indoor temperature 20-25° C. and humidity 40-60% to acclimate the skin surface temperature and humidity to the environment of the measurement space, and were not permitted to drink water during the rest. For objective measurement, measurements were performed by one researcher, and the same site was measured at each time of the first visit before use and the second and third visits in 2 and 4 weeks after use. Before use and in 2 and 4 weeks after use, images of the site to which the test product (HU022 (SEQ ID NO:1)) was applied were formed using 3D skin imaging machine (PRIMOS Premium), and to verify if there is any difference in each of control group and experimental group in 4 weeks after use, wrinkle parameters, Ra, Rmax, Rt, Rp, Rv values, in the stored images of 2 weeks and 4 weeks after use relative to before use were analyzed.

wrinkles around eyes [5] = assay: Wrinkle extent around eyes, skin replica, Visiometer SV600; parameters: R3 numerical value (average roughness): unit not given here
[6] = response 2 (fair), 4 weeks after use
[7] = response 3 (good), 4 weeks after use
[8] = response 4 (very good), 4 weeks after use

“HU024 (RPTRGDCDLPEFCPG; disulfide 7-13; listed as Homo sapiens)” was tested, and the “expert visual assessment score” value (wrinkles around eyes [1]; 2 weeks after use) was 2.00 ± 0.63, the “expert visual assessment score” value (wrinkles around eyes [1]; 4 weeks after use) was 1.67 ± 0.82 and the “expert visual assessment score” value (wrinkles around eyes [1]; Before use) was 2.00 ± 0.63. For the same substance, the “Change(%) in expert visual assessment score” value (wrinkles around eyes [1]; Before use-2 weeks after use) was 0%, the “Change(%) in expert visual assessment score” value (wrinkles around eyes [1]; Before use-4 weeks after use) was −16.67% and the “Number of subjects, wrinkle reduction survey” value (wrinkles around eyes [2]; response 0 (very bad), 4 weeks after use) was 0. For the same substance, the “Number of subjects, wrinkle reduction survey” value (wrinkles around eyes [2]; response 1 (bad), 4 weeks after use) was 0, the “Number of subjects, wrinkle reduction survey” value (wrinkles around eyes [2]; [6]) was 1 and the “Percentage of subjects, wrinkle reduction survey” value (wrinkles around eyes [2]; [6]) was “(16.7) %”. For the same substance, the “Number of subjects, wrinkle reduction survey” value (wrinkles around eyes [2]; [7]) was 4, the “Percentage of subjects, wrinkle reduction survey” value (wrinkles around eyes [2]; [7]) was “(66.7) %” and the “Number of subjects, wrinkle reduction survey” value (wrinkles around eyes [2]; [8]) was 1. For the same substance, the “Percentage of subjects, wrinkle reduction survey” value (wrinkles around eyes [2]; [8]) was “(16.7) %”, the “Mean of wrinkle reduction survey response” value (wrinkles around eyes [2]; scale 0-4, 4 weeks after use) was 3.00 and the “survey assessment about wrinkle reduction, test product versus control product” value (wrinkles around eyes [2]; third visit, 4 weeks after use) was “test product was better at reducing wrinkles than control product”. The “R1 numerical value (skin roughness)” value (wrinkles around eyes [3]; 2 weeks after use, twice daily) was 57.29 ± 3.21, the “R2 numerical value (maximum roughness)” value (wrinkles around eyes [3]; 2 weeks after use, twice daily) was 30.71 ± 6.57 and the “R3 numerical value (average roughness)” value (wrinkles around eyes [3]; 2 weeks after use, twice daily) was 20.80 ± 3.97. The “R4 numerical value (smoothness depth)” value (wrinkles around eyes [3]; 2 weeks after use, twice daily) was 26.24 ± 2.90, the “R5 numerical value (arithmetic average roughness)” value (from here on “R5 numerical value”) (wrinkles around eyes [3]; 2 weeks after use, twice daily) was 11.58 ± 0.89 and the “R1 numerical value (skin roughness)” value (wrinkles around eyes [3]; 4 weeks after use, twice daily) was 45.23 ± 13.77. The “R2 numerical value (maximum roughness)” value (wrinkles around eyes [3]; 4 weeks after use, twice daily) was 28.67 ± 7.47, the “R3 numerical value (average roughness)” value (wrinkles around eyes [3]; 4 weeks after use, twice daily) was 17.81 ± 4.00 and the “R4 numerical value (smoothness depth)” value (wrinkles around eyes [3]; 4 weeks after use, twice daily) was 20.64 ± 6.07. For the same substance, the “R5 numerical value” value (wrinkles around eyes [3]; 4 weeks after use, twice daily) was 8.42 ± 3.48, the “R1 numerical value (skin roughness)” value (wrinkles around eyes [3]; Before use) was 71.33 ± 15.86 and the “R2 numerical value (maximum roughness)” value (wrinkles around eyes [3]; Before use) was 46.06 ± 11.62. For the same substance, the “R4 numerical value (smoothness depth)” value (wrinkles around eyes [3]; Before use) was 31.44 ± 11.04, the “R5 numerical value” value (wrinkles around eyes [3]; Before use) was 13.52 ± 5.43 and the “Change(%) in R1” value (wrinkles around eyes [3]; Before use-2 weeks after use) was −19.68%. The “Change(%) in R4” value (wrinkles around eyes [3]; Before use-2 weeks after use) was −16.54%, the “Change(%) in R5” value (wrinkles around eyes [3]; Before use-2 weeks after use) was −14.36% and the “Change(%) in R1” value (wrinkles around eyes [3]; Before use-4 weeks after use) was −36.59%. For the same substance, the “Change(%) in R3” value (wrinkles around eyes [3]; Before use-4 weeks after use) was −54.55%, the “Change(%) in R4” value (wrinkles around eyes [3]; Before use-4 weeks after use) was −34.36% and the “Change(%) in R5” value (wrinkles around eyes [3]; Before use-4 weeks after use) was −37.71%. For the same substance, the “Ra numerical value (roughness average of wrinkle profile)” value (“Ra numerical value” for short) (wrinkles around eyes [4]; 2 weeks after use, twice daily) was 18.33 ± 2.12, the “Rt numerical value (distance between highest peak and lowest valley)” value (“Rt numerical value” for short) (wrinkles around eyes [4]; 2 weeks after use, twice daily) was 216.37 ± 41.76 and the “Rmax numerical value (maximum height of wrinkle profile)” value (shortened to “Rmax numerical value”) (wrinkles around eyes [4]; 2 weeks after use, twice daily) was 198.77 ± 39.74. For the same substance, the “Rp numerical value (maximum profile peak height)” value (from here on “Rp numerical value”) (wrinkles around eyes [4]; 2 weeks after use, twice daily) was 155.24 ± 43.18, the “Rv numerical value (maximum profile valley depth)” value (shortened to “Rv numerical value”) (wrinkles around eyes [4]; 2 weeks after use, twice daily) was 61.12 ± 8.02 and the “Ra numerical value” value (wrinkles around eyes [4]; 4 weeks after use, twice daily) was 17.71 ± 2.43. The “Rt numerical value” value (wrinkles around eyes [4]; 4 weeks after use, twice daily) was 210.60 ± 38.61, the “Rmax numerical value” value (wrinkles around eyes [4]; 4 weeks after use, twice daily) was 196.85 ± 39.02 and the “Rp numerical value” value (wrinkles around eyes [4]; 4 weeks after use, twice daily) was 153.78 ± 36.12. The “Rv numerical value” value (wrinkles around eyes [4]; 4 weeks after use, twice daily) was 56.82 ± 12.01, the “Ra numerical value” value (wrinkles around eyes [4]; Before use) was 18.64 ± 3.19 and the “Rt numerical value” value (wrinkles around eyes [4]; Before use) was 225.94 ± 45.00. For the same substance, the “Change(%) in Ra” value (wrinkles around eyes [4]; Before use-2 weeks after use) was −0.75%, the “Change(%) in Rmax” value (wrinkles around eyes [4]; Before use-2 weeks after use) was −3.77% and the “Change(%) in Rp” value (wrinkles around eyes [4]; Before use-2 weeks after use) was −3.48%. For the same substance, the “Change(%) in Rt” value (wrinkles around eyes [4]; Before use-2 weeks after use) was −4.24%, the “Change(%) in Rv” value (wrinkles around eyes [4]; Before use-2 weeks after use) was −6.10% and the “Change(%) in Ra” value (wrinkles around eyes [4]; Before use-4 weeks after use) was −4.10%. For the same substance, the “Change(%) in Rmax” value (wrinkles around eyes [4]; Before use-4 weeks after use) was −4.69%, the “Change(%) in Rp” value (wrinkles around eyes [4]; Before use-4 weeks after use) was −4.40% and the “Change(%) in Rt” value (wrinkles around eyes [4]; Before use-4 weeks after use) was −6.79%. For the same substance, the “Change(%) in Rv” value (wrinkles around eyes [4]; Before use-4 weeks after use) was −12.71%, the “Rmax numerical value” value (wrinkles around eyes [4]; Before use) was 206.55 ± 40.54 and the “Rp numerical value” value (wrinkles around eyes [4]; Before use) was 160.85 ± 37.51. The “Rv numerical value” value (wrinkles around eyes [4]; Before use) was 65.09 ± 11.95, the “R3 numerical value (average roughness)” value (wrinkles around eyes [5]; Before use) was 29.15 ± 5.56 and the “Change(%) in R3” value (wrinkles around eyes [5]; Before use-2 weeks after use) was −28.66%.
